Assay results reported in patent US8022206B2 (OSI Pharmaceuticals, LLC, priority 2008, dated 2011).
One block for each compound: values may come before it.

Columns and labels:
[1] = biological target: MET (human) (Homo sapiens, UniProt P08581); experiment: MET (human) AlphaScreen kinase assay, Km of ATP; type: biochemical; conditions: AlphaScreen, Km of ATP; read-out: Met biochemical IC50
Method in brief: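 Human MET at lot-optimised concentration in 50 mM Tris pH 7.4 buffer with 1 mM DTT, compound at 1% DMSO final; enzyme starts the reaction, 60 min at RT.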

[2] = biological target: RON (human) (Homo sapiens, UniProt Q04912); experiment: RON (human) AlphaScreen kinase assay, Km of ATP; type: biochemical; conditions: AlphaScreen, Km of ATP; read-out: RON biochemical IC50
Method in brief: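 Detection used PT66 AlphaScreen beads added in Tris pH 7.5/NaCl/EDTA/BSA buffer, read after 1 h incubation. Vehicle-only DMSO wells served as controls.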

Sequence of MET (human) (P08581 25-1390): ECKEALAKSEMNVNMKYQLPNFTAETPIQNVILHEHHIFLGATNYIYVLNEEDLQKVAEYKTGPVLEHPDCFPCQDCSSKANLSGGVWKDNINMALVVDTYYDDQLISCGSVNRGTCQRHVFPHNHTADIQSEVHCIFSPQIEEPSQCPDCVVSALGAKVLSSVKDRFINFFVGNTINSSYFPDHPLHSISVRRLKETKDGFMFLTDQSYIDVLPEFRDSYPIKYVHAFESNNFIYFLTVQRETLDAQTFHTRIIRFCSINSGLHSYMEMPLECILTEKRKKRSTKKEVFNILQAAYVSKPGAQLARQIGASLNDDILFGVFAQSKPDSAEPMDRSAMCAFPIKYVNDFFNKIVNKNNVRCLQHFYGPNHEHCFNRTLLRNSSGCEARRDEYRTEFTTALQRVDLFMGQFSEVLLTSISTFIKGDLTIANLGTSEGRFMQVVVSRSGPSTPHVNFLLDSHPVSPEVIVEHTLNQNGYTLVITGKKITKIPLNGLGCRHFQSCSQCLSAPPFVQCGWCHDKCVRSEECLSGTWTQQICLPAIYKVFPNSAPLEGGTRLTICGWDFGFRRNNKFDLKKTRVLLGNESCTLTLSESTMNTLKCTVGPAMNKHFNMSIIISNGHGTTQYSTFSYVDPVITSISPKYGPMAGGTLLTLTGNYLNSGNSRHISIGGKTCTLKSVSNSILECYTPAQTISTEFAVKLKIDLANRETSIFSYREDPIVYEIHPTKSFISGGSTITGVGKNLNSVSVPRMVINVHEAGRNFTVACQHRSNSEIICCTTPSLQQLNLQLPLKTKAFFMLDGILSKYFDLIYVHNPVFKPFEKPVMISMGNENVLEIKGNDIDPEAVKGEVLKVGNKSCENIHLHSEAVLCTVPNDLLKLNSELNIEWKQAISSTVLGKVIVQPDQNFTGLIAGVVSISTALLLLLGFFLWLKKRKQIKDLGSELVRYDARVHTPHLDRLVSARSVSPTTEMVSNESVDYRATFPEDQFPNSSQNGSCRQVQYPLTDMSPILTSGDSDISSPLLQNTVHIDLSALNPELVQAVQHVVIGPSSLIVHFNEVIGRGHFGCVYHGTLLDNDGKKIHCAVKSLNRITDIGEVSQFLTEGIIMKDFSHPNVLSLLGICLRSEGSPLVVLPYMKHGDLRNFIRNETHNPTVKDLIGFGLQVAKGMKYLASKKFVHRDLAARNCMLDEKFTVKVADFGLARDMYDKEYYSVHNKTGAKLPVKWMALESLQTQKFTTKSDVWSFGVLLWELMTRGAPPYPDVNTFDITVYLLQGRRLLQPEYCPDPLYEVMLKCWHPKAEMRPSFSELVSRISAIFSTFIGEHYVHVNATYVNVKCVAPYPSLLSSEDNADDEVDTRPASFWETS
Sequence of RON (human) (Q04912 25-1400): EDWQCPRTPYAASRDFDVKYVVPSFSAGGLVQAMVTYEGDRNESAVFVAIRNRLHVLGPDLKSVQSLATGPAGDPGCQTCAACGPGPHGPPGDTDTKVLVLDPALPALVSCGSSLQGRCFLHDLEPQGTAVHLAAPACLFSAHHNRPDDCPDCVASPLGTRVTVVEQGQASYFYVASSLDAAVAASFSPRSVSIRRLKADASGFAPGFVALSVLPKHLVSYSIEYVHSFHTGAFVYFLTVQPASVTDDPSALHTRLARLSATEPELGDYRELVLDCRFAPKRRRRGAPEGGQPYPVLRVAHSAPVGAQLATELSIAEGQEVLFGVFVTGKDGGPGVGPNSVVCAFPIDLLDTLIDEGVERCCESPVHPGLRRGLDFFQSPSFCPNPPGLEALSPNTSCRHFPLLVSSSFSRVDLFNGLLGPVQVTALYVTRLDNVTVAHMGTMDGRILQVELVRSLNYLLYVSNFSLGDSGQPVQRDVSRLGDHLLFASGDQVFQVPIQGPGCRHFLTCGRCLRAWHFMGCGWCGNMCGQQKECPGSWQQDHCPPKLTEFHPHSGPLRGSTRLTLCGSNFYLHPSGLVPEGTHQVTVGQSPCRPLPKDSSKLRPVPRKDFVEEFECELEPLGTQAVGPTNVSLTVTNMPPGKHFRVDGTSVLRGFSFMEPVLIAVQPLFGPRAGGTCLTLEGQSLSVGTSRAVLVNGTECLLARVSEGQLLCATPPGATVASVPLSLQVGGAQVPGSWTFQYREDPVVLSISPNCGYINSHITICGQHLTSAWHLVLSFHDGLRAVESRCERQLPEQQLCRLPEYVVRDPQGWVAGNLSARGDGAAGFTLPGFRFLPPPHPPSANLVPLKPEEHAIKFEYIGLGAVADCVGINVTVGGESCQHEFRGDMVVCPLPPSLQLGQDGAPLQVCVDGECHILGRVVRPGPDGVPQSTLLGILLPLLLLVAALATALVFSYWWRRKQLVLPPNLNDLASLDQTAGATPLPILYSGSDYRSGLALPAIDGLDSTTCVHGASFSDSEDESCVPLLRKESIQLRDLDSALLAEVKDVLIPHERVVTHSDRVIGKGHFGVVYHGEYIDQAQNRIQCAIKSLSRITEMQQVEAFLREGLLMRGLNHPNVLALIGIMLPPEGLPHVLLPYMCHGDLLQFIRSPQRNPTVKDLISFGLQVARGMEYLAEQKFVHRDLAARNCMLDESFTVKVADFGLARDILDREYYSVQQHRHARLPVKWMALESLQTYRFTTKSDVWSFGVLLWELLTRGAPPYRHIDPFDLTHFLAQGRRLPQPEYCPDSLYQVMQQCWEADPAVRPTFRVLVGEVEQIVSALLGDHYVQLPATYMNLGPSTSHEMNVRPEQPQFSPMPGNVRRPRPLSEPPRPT

Compound: C[C@@H](Oc1c(N)ncc2c(C(=O)NC(C)(C)C)coc12)c1c(Cl)ccc(F)c1Cl [Example 184, 6-Amino-7-[(R)-1-(2,6-dichloro-3-fluorophenyl)ethoxy]furo[3,2-c]pyridine-3-carboxylic acid tert-butylamide]
IC50 [1]: 500 to 5000 nM
IC50 [2]: 5000 to 20000 nM

Compound: C[C@@H](Oc1c(N)ncc2c(C3=CCN(C(=O)C(F)(F)F)CC3)coc12)c1c(Cl)ccc(F)c1Cl [Example 56, 1-(4-{6-Amino-7-[(R)-1-(2,6-dichloro-3-fluorophenyl)-ethoxy]-furo[3,2-c]pyridin-3-yl}-3,6-dihydro-2H-pyridin-1-yl)-2,2,2-trifluoroethanone]
IC50 [1]: 500 to 5000 nM
IC50 [2]: 500 to 5000 nM

Compound: C[C@@H](Oc1c(N)ncc2c(-c3csc(C(N)=O)c3)coc12)c1c(Cl)ccc(F)c1Cl [Example 318, 4-{6-Amino-7-[(R)-1-(2,6-dichloro-3-fluorophenyl)ethoxy]furo[3,2-c]pyridin-3-yl}thiophene-2-carboxamide]
IC50 [1]: 500 to 5000 nM
IC50 [2]: 500 to 5000 nM

Compound: C[C@@H](Oc1c(N)ncc2c(C3=CCN(C(=O)C(N)C(F)(F)F)CC3)coc12)c1c(Cl)ccc(F)c1Cl (stereo partly drawn) [Example 260, 2-Amino-1-[4-{6-amino-7-[(1R)-1-(2,6-dichloro-3-fluorophenyl)-ethoxy]furo[3,2-c]pyridin-3-yl}-3,6-dihydropyridin-1(2H)-yl]-3,3,3-trifluoropropan-1-one]
IC50 [1]: 500 to 5000 nM
IC50 [2]: 500 to 5000 nM

Compound: C[C@@H](Oc1c(N)ncc2c(-c3ccc(C(=O)N(C)C)s3)coc12)c1c(Cl)ccc(F)c1Cl [Example 208, 5-{6-Amino-7-[(R)-1-(2,6-dichloro-3-fluorophenyl)ethoxy]-furo[3,2-c]pyridin-3-yl}-thiophene-2-carboxylic acid dimethyl amide]
IC50 [1]: 500 to 5000 nM
IC50 [2]: 500 to 5000 nM

Compound: C[C@@H](Oc1c(N)ncc2c(-c3ccc(C(=O)O)cc3)coc12)c1c(Cl)ccc(F)c1Cl [Example 65, 4-{6-Amino-7-[(R)-1-(2,6-dichloro-3-fluorophenyl)ethoxy]-furo[3,2-c]pyridin-3-yl}benzoic Acid]
IC50 [1]: 500 to 5000 nM
IC50 [2]: 500 to 5000 nM

Compound: C[C@@H](Oc1c(N)ncc2c(-c3cnn(C4CCNCC4)c3)c(C#N)oc12)c1c(Cl)ccc(F)c1Cl [Example 169, 6-Amino-7-[(R)-1-(2,6-dichloro-3-fluorophenyl)ethoxy]-3-(1-piperidin-4-yl-1H-pyrazol-4-yl)-furo[3,2-c]pyridine-2-carbonitrile]
IC50 [1]: 500 to 5000 nM
IC50 [2]: 500 to 5000 nM

Compound: C[C@@H](Oc1c(N)ncc2c(-c3cnc(N)nc3)coc12)c1c(Cl)ccc(F)c1Cl [Example 113, 3-(2-Amino-pyrimidin-5-yl)-7-[(R)-1-(2,6-dichloro-3-fluorophenyl)ethoxy]furo[3,2-c]pyridin-6-ylamine]
IC50 [1]: 500 to 5000 nM
IC50 [2]: 500 to 5000 nM

Compound: CCNC(=O)N1CCC(n2cc(-c3coc4c(O[C@H](C)c5c(Cl)ccc(F)c5Cl)c(N)ncc34)cn2)CC1 [Example 273, 4-(4-{6-Amino-7-[(1R)-1-(2,6-dichloro-3-fluorophenyl)ethoxy]furo[3,2-c]pyridin-3-yl}-1H-pyrazol-1-yl)-N-ethylpiperidine-1-carboxamide]
IC50 [1]: 500 to 5000 nM
IC50 [2]: 500 to 5000 nM

Compound: CC(Oc1c(N)ncc2c(-c3cnn(C4CCNCC4)c3)coc12)c1cc(F)cc(-c2ccccc2)c1 (centres unmarked) [Example 449, 7-[1-(5-Fluorobiphenyl-3-yl)ethoxy]-3-(1-piperidin-4-yl-1H-pyrazol-4-yl)furo[3,2-c]pyridin-6-ylamine]
IC50 [1]: 500 to 5000 nM
IC50 [2]: 500 to 5000 nM

Compound: C[C@@H](Oc1c(N)ncc2c(-c3cccc(NS(=O)(=O)CCN(C)C)c3)coc12)c1c(Cl)ccc(F)c1Cl [Example 249, 2-Dimethylaminoethanesulfonic Acid (3-{6-amino-7-[(R)-1-(2,6-dichloro-3-fluorophenyl)ethoxy]furo[3,2-c]pyridin-3-yl}phenyl)amide]
IC50 [1]: 500 to 5000 nM
IC50 [2]: 500 to 5000 nM

Compound: COC(=O)c1csc(-c2coc3c(O[C@H](C)c4c(Cl)ccc(F)c4Cl)c(N)ncc23)c1 [Example 292, 5-{6-Amino-7-[(R)-1-(2,6-dichloro-3-fluorophenyl)ethoxy]furo[3,2-c]pyridin-3-yl}thiophene-3-carboxylic acid methyl ester]
IC50 [1]: 500 to 5000 nM
IC50 [2]: 500 to 5000 nM

Compound: C[C@@H](Oc1c(N)ncc2c(-c3cccc(C(=O)O)c3)coc12)c1c(Cl)ccc(F)c1Cl [Example 80, 3-{6-Amino-7-[(R)-1-(2,6-dichloro-3-fluorophenyl)ethoxy]-furo[3,2-c]pyridin-3-yl}benzoic acid]
IC50 [1]: 500 to 5000 nM
IC50 [2]: 500 to 5000 nM

Compound: C[C@@H](Oc1c(N)ncc2c(-c3cccc(C(=O)N(C)C)c3)coc12)c1c(Cl)ccc(F)c1Cl [Example 73, 3-{6-Amino-7-[(R)-1-(2,6-dichloro-3-fluorophenyl)ethoxy]-furo[3,2-c]pyridin-3-yl}-N,N-dimethylbenzamide]
IC50 [1]: 500 to 5000 nM
IC50 [2]: 500 to 5000 nM

Second part, the compound after the results:

IC50 [1]: 500 to 5000 nM
IC50 [2]: < 500 nM
Compound: C[C@@H](Oc1c(N)ncc2c(C3=CCCC(N)C3)coc12)c1c(Cl)ccc(F)c1Cl (stereo partly drawn) [Example 145, 3-(5-Aminocyclohex-1-enyl)-7-[(R)-1-(2,6-dichloro-3-fluoro-phenyl)ethoxy]furo[3,2-c]pyridin-6-ylamine]

IC50 [1]: < 500 nM
IC50 [2]: 500 to 5000 nM
Compound: C[C@@H](Oc1c(N)ncc2c(C(=O)NCC3CCN(C)CC3)coc12)c1c(Cl)ccc(F)c1Cl [Example 185, 6-Amino-7-[(R)-1-(2,6-dichloro-3-fluorophenyl)ethoxy]furo[3,2-c]pyridine-3-carboxylic acid (1-methylpiperidin-4-ylmethyl)amide]

IC50 [1]: < 500 nM
IC50 [2]: 500 to 5000 nM
Compound: Cc1oc2c(O[C@H](C)c3c(Cl)ccc(F)c3Cl)c(N)ncc2c1-c1cnn(C2CCNCC2)c1 [Example 168, 7-[(R)-1-(2,6-Dichloro-3-fluorophenyl)ethoxy]-2-methyl-3-(1-piperidin-4-yl-1H-pyrazol-4-yl)-furo[3,2-c]pyridin-6-ylamine]

IC50 [1]: < 500 nM
IC50 [2]: 500 to 5000 nM
Compound: CC(Oc1c(N)ncc2c(-c3cnn(C4CCNCC4)c3)coc12)c1c(F)cccc1F (centres unmarked) [Example 383, 7-[1-(2,6-Difluorophenyl)ethoxy]-3-(1-piperidin-4-yl-1H-pyrazol-4-yl)furo[3,2-c]pyridin-6-ylamine]

IC50 [1]: < 500 nM
IC50 [2]: < 500 nM
Compound: C[C@@H](Oc1c(N)ncc2c(-c3ccc(OCCCN(C)C)nc3)coc12)c1c(Cl)ccc(F)c1Cl [Example 122, 7-[(R)-1-(2,6-Dichloro-3-fluorophenyl)ethoxy]-3-[6-(3-dimethylaminopropoxy)pyridin-3-yl]furo[3,2-c]pyridin-6-ylamine]

IC50 [1]: < 500 nM
IC50 [2]: 500 to 5000 nM
Compound: C[C@@H](Oc1c(N)ncc2c(C3=CCSCC3)coc12)c1c(Cl)ccc(F)c1Cl [Example 139, 7-[(R)-1-(2,6-Dichloro-3-fluorophenyl)-ethoxy]-3-(3,6-dihydro-2H-thiopyran-4-yl)-furo[3,2-c]pyridin-6-ylamine]

IC50 [1]: < 500 nM
IC50 [2]: 5000 to 20000 nM
Compound: CCNC(=O)c1coc2c(O[C@H](C)c3c(Cl)ccc(F)c3Cl)c(N)ncc12 [Example 179, 6-Amino-7-[(R)-1-(2,6-dichloro-3-fluorophenyl)ethoxy]furo[3,2-c]pyridine-3-carboxylic acid ethylamide]

IC50 [1]: < 500 nM
IC50 [2]: < 500 nM
Compound: C[C@@H](Oc1c(N)ncc2c(-c3csc(C(=O)N4CCN(C)CC4)c3)coc12)c1c(Cl)ccc(F)c1Cl [Example 316, (4-{6-Amino-7-[(R)-1-(2,6-dichloro-3-fluorophenyl)ethoxy]furo[3,2-c]pyridin-3-yl}thiophen-2-yl)-(4-methylpiperazin-1-yl)methanone]

IC50 [1]: < 500 nM
IC50 [2]: 500 to 5000 nM
Compound: CC(Cc1c(Cl)cccc1Br)Oc1c(N)ncc2c(-c3cnn(C4CCNCC4)c3)coc12 (centres unmarked) [Example 371, 7-[2-(2-Bromo-6-chlorophenyl)-1-methylethoxy]-3-(1-piperidin-4-yl-1H-pyrazol-4-yl)furo[3,2-c]pyridin-6-ylamine]

IC50 [1]: < 500 nM
IC50 [2]: < 500 nM
Compound: COc1cccc(Cl)c1C(C)Oc1c(N)ncc2c(-c3cnn(C4CCNCC4)c3)coc12 (centres unmarked) [Example 359, 7-[1-(2-Chloro-6-methoxyphenyl)ethoxy]-3-(1-piperidin-4-yl-1H-pyrazol-4-yl)furo[3,2-c]pyridin-6-ylamine]

IC50 [1]: < 500 nM
IC50 [2]: 500 to 5000 nM
Compound: C[C@@H](Oc1c(N)ncc2c(-c3csc(C(=O)O)c3)coc12)c1c(Cl)ccc(F)c1Cl [Example 311, 4-{6-Amino-7-[(R)-1-(2,6-dichloro-3-fluorophenyl)ethoxy]furo[3,2-c]pyridin-3-yl}thiophene-2-carboxylic acid]

IC50 [1]: < 500 nM
IC50 [2]: 500 to 5000 nM
Compound: C[C@@H](Oc1c(N)ncc2c(-c3csc(C(=O)NC(C)(C)C)c3)coc12)c1c(Cl)ccc(F)c1Cl [Example 315, 4-{6-Amino-7-[(R)-1-(2,6-dichloro-3-fluorophenyl)ethoxy]-furo[3,2-c]pyridin-3-yl}thiophene-2-carboxylic acid tert-butylamide]

IC50 [1]: < 500 nM
IC50 [2]: 500 to 5000 nM
Compound: C[C@@H](Oc1c(N)ncc2c(C(=O)NCCN(C)C)coc12)c1c(Cl)ccc(F)c1Cl [Example 190, 6-Amino-7-[(R)-1-(2,6-dichloro-3-fluorophenyl)ethoxy]furo[3,2-c]pyridine-3-carboxylic acid (3-dimethylaminoethyl)amide]

IC50 [1]: < 500 nM
IC50 [2]: < 500 nM
Compound: C[C@@H](Oc1c(N)ncc2c(C3=CCN(C(=O)N4CCN(C)CC4)CC3)coc12)c1c(Cl)ccc(F)c1Cl [Example 225, (4-{6-Amino-7-[(R)-1-(2,6-dichloro-3-fluorophenyl)-ethoxy]-furo[3,2-c]pyridin-3-yl}-3,6-dihydro-2H-pyridin-1-yl)-(4-methylpiperazin-1-yl)-methanone]
